The subject of assay [1] is microbiota of human donor fecal samples. As to the kind of experiment: MESA microplate experiments (16S rRNA V4 sequencing, PCoA/Unifrac). The settings on record: 24 hours anaerobic. Format: cell-based. The procedure: A fecal sample was obtained from each of three human donors, Donor 1, Donor 2, and Donor 3. 1 gram of each fecal sample was added to 10 mL phosphate buffered saline (PBS) to form three separate slurries of 10% (w/v) fecal sample. A total of 36 experiments was setup on a 48-well plate (referred to herein as “microplate experiments”). For each slurry obtained from Donor 1 Donor 2, or Donor 3, 40 μL of the respective slurry was added to each of twelve wells of the plate. For each of these 12 wells, 360 μL of water (control), water comprising fructose, or water comprising fructose oligosaccharide (FOS) were added. After addition of water, three of the twelve wells comprised slurry+water; three of the twelve wells comprised slurry+2% w/v fructose+water; three of the twelve wells comprised slurry+0.5% w/v FOS+water; and three of the twelve wells comprised slurry+2% w/v FOS+water. In Table 1, “Donor 1” represents slurry from Donor 1, “Donor 2” represents slurry from Donor 2, and “Donor 3” represents slurry from Donor 3. The microplate was then incubated for 24 hours in an anaerobic chamber under 80% nitrogen, 10% carbon dioxide, and 10% hydrogen (H2). A total of 8 experiments were prepared each in a vial (referred to herein as “tube experiments”). 200 μL of slurry from Donor 1 was added to each of the 8 vials. In 4 of the vials, 1.8 mL of water comprising FOS was added for a final concentration of 2% w/v FOS. For the other four vials, 1.8 mL of water (control) was added. Two of the vials comprising FOS and the two vials comprising water are incubated for 24 hours in an anaerobic chamber (comprising 80% nitrogen, 10% carbon dioxide, and 10% hydrogen (H2)) at 37° C. The other four vials are incubated for 16 hours. DNA was extracted from each sample (well or tube) and quantified using a PicoGreen method. DNA is also extracted from an aliquot of each slurry obtained from Donor 1, Donor 2, and Donor 3. DNA comprising the variable region (V4) region of the 16S rRNA gene was amplified and sequenced using the MiSeq platform from Ilumina. Principle component analyses (PCoA) were performed to identify Unifrac distances (degree of similarity/dissimilarity) of the different treatment groups. Relative taxa representation for the various treatment groups was determined at the phylum, class, order, family, genus and species levels using operational taxonomic units (OTUs) by comparing results to the GreenGenes database.

Assay [2] shares this test system. As to the kind of experiment: MESA tube experiments (16S rRNA V4 sequencing, PCoA/Unifrac). Format: cell-based. The settings on record: 2% FOS. As to the method:
A fecal sample was obtained from each of three human donors, Donor 1, Donor 2, and Donor 3. 1 gram of each fecal sample was added to 10 mL phosphate buffered saline (PBS) to form three separate slurries of 10% (w/v) fecal sample. A total of 36 experiments was setup on a 48-well plate (referred to herein as “microplate experiments”). For each slurry obtained from Donor 1 Donor 2, or Donor 3, 40 μL of the respective slurry was added to each of twelve wells of the plate. For each of these 12 wells, 360 μL of water (control), water comprising fructose, or water comprising fructose oligosaccharide (FOS) were added. After addition of water, three of the twelve wells comprised slurry+water; three of the twelve wells comprised slurry+2% w/v fructose+water; three of the twelve wells comprised slurry+0.5% w/v FOS+water; and three of the twelve wells comprised slurry+2% w/v FOS+water. In Table 1, “Donor 1” represents slurry from Donor 1, “Donor 2” represents slurry from Donor 2, and “Donor 3” represents slurry from Donor 3. […] DNA was extracted from each sample (well or tube) and quantified using a PicoGreen method. […] Relative taxa representation for the various treatment groups was determined at the phylum, class, order, family, genus and species levels using operational taxonomic units (OTUs) by comparing results to the GreenGenes database.

Setting [3] is: Donor 1, 2% w/v agent, n=3, FIG. 2.
[4] abbreviates: Donor 2, 2% w/v agent, n=3, FIG. 3.
The mark [5] stands for this setting: Donor 3, 2% w/v agent, n=3, FIG. 4.

For the molecule `O=C(CO)[C@@H](O)[C@H](O)[C@H](O)CO` [fructose], the “shift in microbiota profile (PCoA, Unifrac distances)” value in assay [1] (setting [3]), in assay [1] (setting [4]) and in assay [1] (setting [5]) was “shift microbiota differently from controls” in each case.
As for fructose oligosaccharide [FOS], the “shift in microbiota profile (PCoA, Unifrac distances)” value is recorded as “shift microbiota differently from controls” in assay [1] (Donor 1, 0.5% w/v agent, n=3, FIG. 2); “shift microbiota differently from controls” in assay [1] (setting [3]); “shift microbiota differently from controls” in assay [1] (Donor 2, 0.5% w/v agent, n=3, FIG. 3); “shift microbiota differently from controls” in assay [1] (setting [4]); “shift microbiota differently from controls” in assay [1] (Donor 3, 0.5% w/v agent, n=3, FIG. 4); “shift microbiota differently from controls” in assay [1] (setting [5]). For the same molecule, the “shifts in microbial communities between the two assay formats” value in assay [2] (24 hour incubation, tube (n=2) vs microplate (n=3), FIG. 6) was “similar”. The “shifts in microbial communities between the two incubation times” value in assay [2] (Donor 1, 16 hour vs 24 hour incubation, tube, n=2, FIG. 5) is on record as “similar”.
